Measured values taken from article PMC9569954, “The Antidepressant-like Activity, Effects on Recognition Memory Deficits, Bioavailability, and Safety after Chronic Administration of New Dual-Acting Small Compounds Targeting Neuropsychiatric Symptoms in Dementia” (International Journal of Molecular Sciences, 2022).

How the values were obtained:
Bdnf gene = Bdnf gene expression in brain structures (RT-qPCR, ex vivo); set-up: species or system rats; conditions: rat, 1 mg/kg/day i.p., 21 days; for Bdnf expression upregulation vs control, hippocampus: hippocampus (Hipp); for Bdnf expression upregulation vs control, prefrontal cortex: prefrontal cortex (PFX)
Experimental: Animals in all treatment groups were sacrificed by rapid decapitation immediately after the behavioral tests, when the brains and blood samples were collected. For quantitative reverse transcription-polymerase chain reaction (RT-qPCR), the brains of rats were rapidly removed, and the hippocampus and prefrontal cortex were dissected on an ice-cold glass plate. The tissues were frozen in dry ice and stored at −80 °C until required.
The total RNA was extracted from tissues using an RNA Isolation kit (Thermo Fisher Scientific, Rockford, IL, USA), and its concentration was normalized to 20 ng/μL. Reverse transcription was performed with a High-Capacity Reverse Transcription Kit (Life Technologies, Grand Island, NY, USA). A qPCR fast 96-well reaction plate was used for the process with TaqMan Gene Expression assay (Life Technologies) for brain-derived neurotrophic factor Bdnf (Rn02531967_s1) on an Applied Biosystems® 7500 Fast Real-Time PCR Instrument (Applied Biosystems, Foster City, CA, USA), according to the manufacturer’s protocol. Glyceraldehyde-3-phosphate dehydrogenase, Gapdh (Rn01775763_g1), was selected as endogenous control, based on the pilot experiment. Relative normalized expression was calculated using the ΔΔCq method.

5-HT1AR [1] = system: 5-HT1AR; set-up: method as in PMID 35248836; conditions: cited from earlier work
[2] = Ferric-reducing antioxidant power (FRAP) of serum; format: in vivo, rats; conditions: rat, 1 mg/kg/day i.p., 21 days
Experimental: The assay was performed according to Benzie and Strain [46] with some modifications. The FRAP working solution was prepared before the start of the analysis, namely, 0.3 mol acetate buffer (pH 3.6), 0.01 mol TPTZ (2,4,6-tripyridyl-s-triazine; Sigma-Aldrich) in 0.04 mol HCl (POCh, Gliwice, Poland), and 0.02 M FeCl3×6H2O in water (iron (III) chloride hexahydrate; Chempur, Piekary Śląskie, Poland) were mixed in a volumetric ratio of 10:1:1 and protected from light.
Next, 20 µL of the plasma sample tested, brain homogenate, or FeSO4×7H2O solution was mixed with 180 µL of the FRAP working solution. The mixtures obtained were incubated at 37 °C for 30 min and their absorbance was measured at 593 nm. FeSO4×7H2O (100–1000 µM/L) was used for a calibration curve. Deionized water with FRAP solution was used as a blank.

PDE10A = system: PDE10A; set-up: method as in PMID 35248836; conditions: read-out: Inhibition PDE10A IC50; cited from earlier work
[3] = system: (+)-MK-801-induced memory deficits; assay: Novel object recognition (NOR) test in (+)-MK-801 treated rats; format: in vivo, male Wistar rats; conditions: rat; for Total Exploratory Time in T2 Session: vehicle 49.67 ± 4.63; for effect on (+)-MK-801-induced recognition memory deficits (discrimination index): 21 days, (+)-MK-801 0.1 mg/kg i.p.
Experimental: The rats were injected with the respective compounds for 21 consecutive days at the minimum active doses selected previously, based on acute treatment and assessment in the NOR test. The protocol for the NOR test was adapted from the original work and the test was performed according to the previously described protocol, 24 h after the last injection of the investigated compound. The discrimination index (DI) was calculated according to the formula:(7) DI=(EB−EA)/(EA+EB) where EB is the exploration time of novel object during the T2 session and EA is the exploration time of […].
PQA-AZ4 and PQA-AZ-6 were administered for 60 and 30 min, respectively, before the T1 phase (the familiarization phase). MK-801 was used to attenuate learning and was administered at a dose of 0.1 mg/kg (i.p.) 30 min before the familiarization phase (T1). The total exploration time in T2 was used to determine the influence of the treatment on the exploratory activity of the animals.

Body weight measurement = format: in vivo, rats; conditions: rat, 20-day administration, 1 mg/kg/day i.p.
Experimental: Body weight was measured every second day, immediately before the administration of drugs.

rats [4] = assay: Forced swim test (FST); format: in vivo, male Wistar rats; conditions: rat; for effect on immobility in FST / Immobility time: acute 1 mg/kg i.p.; for Immobility time: 60 min before test, 5 min session, vehicle 255.9 ± 8.6
Experimental: The rats were injected for 21 consecutive days at a dose of 1 mg/kg, similar to the dose used in acute treatment, as per data presented in Supplementary Materials (Table S1). The FST was conducted according to the method of Porsolt. On the first day of the experiment, the animals were gently placed individually for 15 min in Plexiglas cylinders (40 cm high, 18 cm in diameter) containing 15 cm of water maintained at 23–25 °C. On removal from water, the rats were placed for 30 min in a Plexiglas box under a 60 W bulb to dry. On the following day (24 h later), the rats were replaced in the cylinder and the total duration of immobility was recorded during the whole 5 min test period. Immobility was assigned when no additional activity was observed other than that necessary to keep the rat’s head above the water. Fresh water was used for each animal.
FST after acute administration of the investigated compounds
Rats were injected 60 min before the test at a dose of 1 mg/kg. FST was carried out according to the method of Porsolt, and the same procedure was used for chronic treatment.
Table S1. Effect of acute treatment of PQA-AZ4, PQA-AZ6, and PQ-10 on the immobility time in the […]
Compound (mg/kg) Immobility time (s)
Compounds were injected i.p. 60 min before the test. Values represent the means ± SEM of immobility in the FST during a 5 min test session. The data were analyzed using one -way ANOVA, followed by Bonferroni‘s post hoc test; NS = nonsignificant; N=7-8.

5-HT1AR [5] = molecular target: 5-HT1AR; set-up: method as in PMID 35248836; conditions: read-out: Affinity 5-HT1AR Ki; cited from earlier work
5-HT7R = molecular target: 5-HT7R; set-up: method as in PMID 35248836; conditions: read-out: Affinity 5-HT7R Ki; cited from earlier work
rats [6] = assay: 18-hour spontaneous activity monitoring; format: in vivo, male Wistar rats; conditions: rat, 1 mg/kg/day i.p.
Experimental: Spontaneous activity was measured on the 20th day of the treatment with a special, innovative, radio-frequency identification system (RFID-system), TraffiCage (TSE-Systems, Bad Homburg, Germany). The test was conducted according to the method described previously. The animals had RFID transmitters implanted subcutaneously, which tracked the time they spent in different areas of the cage.

[7] = chronic 1 mg/kg/day i.p., 21 days

total antioxidant activity of serum (Fe2+ formed, FRAP) vs control [2] | Compound | Bdnf expression upregulation vs control, hippocampus (Bdnf gene) | Bdnf expression upregulation vs control, prefrontal cortex (Bdnf gene) | Functional profile at 5-HT1AR (5-HT1AR [1]) | IC50 (PDE10A) | Total Exploratory Time in T2 Session ([3]; 1 mg/kg/day i.p. 21 days + (+)-MK-801 0.1 mg/kg) | effect on (+)-MK-801-induced recognition memory deficits (discrimination index) ([3]; 1 mg/kg/day i.p.) | weight gain vs vehicle (Body weight measurement) | effect on immobility in FST (rats [4]) | Immobility time (rats [4]) | antidepressant-like activity in FST (rats [4]; [7]) | Ki (5-HT1AR [5]) | Ki (5-HT7R) | spontaneous activity vs vehicle (rats [6]; five and six hours after 20-day administration) | Total Exploratory Time in T2 Session ([3]; 3 mg/kg/day i.p. 21 days + (+)-MK-801 0.1 mg/kg) | effect on (+)-MK-801-induced recognition memory deficits (discrimination index) ([3]; 3 mg/kg/day i.p.) | decrease of immobility vs. control group in FST (rats [4]; [7]) | spontaneous activity vs vehicle (rats [6]; eighteen hours after 20-day administration)
comparable | COc1cccc(N2CCN(CC3CCN(c4ncnc5cc(OC)c(OC)cc45)C3)CC2)c1 (centres unmarked) [PQA-AZ4, 6,7-Dimethoxy-4-(3-((4-(3-methoxyphenyl)piperazin-1-yl)methyl)pyrrolidin-1-yl)quinazoline] | about 2.8 fold | about 10 fold | partial agonists | 7070 nM | 28.83 ± 2.50 p < 0.01 vs. veh; p < 0.05 vs. (+)-MK-801 F(2,16) = 7.3773; p < 0.01 | restored recognition memory deficits | No significant effect | did not change the immobility | 244.8 ± 8.9 s | inactive | 18 nM | 234 nM | increased |  |  |  | 
comparable | COc1cc2ncnc(N3CCC(CN4CCN(c5ccc(Cl)cc5)CC4)C3)c2cc1OC (centres unmarked) [PQA-AZ6, 4-(3-((4-(4-Chlorophenyl)piperazin-1-yl)methyl)pyrrolidin-1-yl)-6,7-dimethoxyquinazoline] | about 33 fold | ~12 fold | partial agonists | 5680 nM |  |  | No significant effect | did not change the immobility | 255.4 ± 7.0 s | showed antidepressant-like properties | 346 nM | 136 nM |  | 39.57 ± 4.39 F(2,17) = 1.3060; NS s | restored recognition memory deficits | about 11% | decreased
